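Step 1: Grow cells in 96-well plates. Step 2: Expose to compound for 48 hours at 5 concentrations. Step 3: Interpolate endpoints linearly; if unreached, use highest concentration. GI50 marks 50% less growth. The concentration for full growth arrest is given as TGI.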
What was measured:
Assay in all cases: NCI anticancer screen, dose series, 48 h
EKVX NSCLC = system: EKVX NSCLC
HCT-15 colon = system: HCT-15 colon
HOP-62 NSCLC = system: HOP-62 NSCLC
IGROV1 ovarian = system: IGROV1 ovarian
K-562 leukemia = system: K-562 leukemia
SF-539 CNS = system: SF-539 CNS
SK-MEL-5 melanoma = system: SK-MEL-5 melanoma
SR leukemia = system: SR leukemia
SW-620 colon = system: SW-620 colon
UACC-62 melanoma = system: UACC-62 melanoma

| SMILES | TGI (EKVX NSCLC) [µM] | TGI (HCT-15 colon) [µM] | TGI (HOP-62 NSCLC) [µM] | TGI (IGROV1 ovarian) [µM] | TGI (K-562 leukemia) [µM] | TGI (SF-539 CNS) [µM] | TGI (SK-MEL-5 melanoma) [µM] | TGI (SR leukemia) [µM] | TGI (SW-620 colon) [µM] | TGI (UACC-62 melanoma) [µM] | GI50 (EKVX NSCLC) [µM] | GI50 (HCT-15 colon) [µM] | GI50 (HOP-62 NSCLC) [µM] | GI50 (IGROV1 ovarian) [µM] | GI50 (K-562 leukemia) [µM] | GI50 (SF-539 CNS) [µM] | GI50 (SK-MEL-5 melanoma) [µM] | GI50 (SR leukemia) [µM] | GI50 (SW-620 colon) [µM] | GI50 (UACC-62 melanoma) [µM] |
| --- | --- | --- | --- | --- | --- | --- | --- | --- | --- | --- | --- | --- | --- | --- | --- | --- | --- | --- | --- | --- |
| CCOP1(=O)OCC2OC(n3cnc4c(N)ncnc43)C(O)C2O1 (stereo not given) | > 100 | > 100 | > 100 | > 100 | > 100 | > 100 | > 100 | > 100 | > 100 | > 100 | – | – | – | – | – | – | – | – | – | – |
| C#Cc1cccc(NC(=O)Nc2ccccc2NC(=O)CCl)c1 | 66.2 | 41.6 | > 82.5 | 28 | > 82.5 | 32.4 | 26.9 | > 82.5 | 45.2 | 25.8 | 19.3 | 15.1 | 25.9 | 13.6 | 22.8 | 13.8 | 14.2 | 23.8 | 19.3 | 13.8 |
| COc1ccc(C(=O)c2cc3c(N)c(C(=O)Nc4cccc(Cl)c4)sc3nc2C)cc1 | > 33.3 | > 33.3 | > 33.3 | > 33.3 | > 33.3 | 3.2 | 2.6 | > 33.3 | > 33.3 | > 33.3 | 2.06 | 1.32 | 2.24 | 1.76 | 1.36 | 0.995 | 0.92 | 1.15 | 1.67 | 1.12 |
| CCOC(=O)C(C(=O)c1ccccc1-c1ccccc1C(=O)O)=P(c1ccccc1)(c1ccccc1)c1ccccc1 | > 100 | 74.8 | 40.5 | 47.3 | > 100 | 35.3 | 29.6 | 85.1 | > 100 | 33 | – | – | – | – | – | – | – | – | – | – |
| COC(=O)C1=C(O)C(O)=C(C(=O)OC)CC1 | > 100 | > 100 | > 100 | > 100 | > 100 | > 100 | > 100 | > 100 | > 100 | > 100 | – | – | – | – | – | – | – | – | – | – |
| COc1ccc(CN(O)C2C(CO)OC(n3cc(I)c(=O)[nH]c3=O)C2O)cc1 (stereo not given) | > 100 | > 100 | > 100 | > 100 | > 100 | > 100 | > 100 | > 100 | > 100 | > 100 | – | – | – | – | – | – | – | – | – | – |
| COc1ccc(C(=O)/C=C/c2ccc(Cl)cc2)cc1S(N)(=O)=O | 18.4 | 10.6 | 8.62 | 8.34 | > 100 | 3.3 | 18 | 6.86 | 3.85 | 17.5 | 4.56 | 2.14 | 2.51 | 2.67 | 0.568 | 1.6 | 5.69 | 0.865 | 1.76 | 4.88 |
| [N-]=[N+]=Nc1ccc(S(=O)(=O)Oc2cc(OS(=O)(=O)c3ccc(N=[N+]=[N-])cc3)cc(OS(=O)(=O)c3ccc(N=[N+]=[N-])cc3)c2)cc1 | > 100 | > 100 | > 100 | > 100 | > 100 | > 100 | > 100 | > 100 | > 10 | > 100 | – | – | – | – | – | – | – | – | – | – |
| COc1ccc(NC(=O)c2ccc(NC3=C(Cl)C(=O)N(Cc4ccccc4)C3=O)cc2)cc1 | > 100 | 17.3 | 32.6 | 3.93 | 64.8 | 11.8 | 32.1 | 3.61 | > 100 | 36.8 | 32.1 | 4.04 | 17.1 | 1.5 | 4.02 | 3.29 | 10 | 0.766 | 4.83 | 16.3 |
| CCc1cc(C(N)=O)ccc1-n1nc(C(C)C)c2c(-n3cnc(-c4cnn(C)c4)c3)ccnc21 | > 100 | > 100 | > 100 | > 100 | > 100 | > 100 | > 100 | > 100 | > 100 | > 35.4 | 16.3 | 2.9 | 7.92 | 4.15 | 0.867 | 3.08 | 3.98 | 0.546 | 0.536 | 1.18 |
| O=C1CCC/C=C\C[C@H]2C=C(Cl)C(=O)/C2=C/C[C@H](CCCCC(F)(F)F)OC(=O)CCC/C=C\C[C@H]2C=C(Cl)C(=O)/C2=C/C[C@H](CCCCC(F)(F)F)O1 | 1.18 | 1.32 | 1.46 | 0.791 | 7.5 | 1.52 | 1.37 | 0.748 | 0.659 | 0.352 | 0.283 | 0.297 | 0.274 | 0.231 | 0.184 | 0.257 | 0.412 | 0.198 | 0.237 | 0.149 |
| Cn1cc(-c2ccc3cc(-c4ccc(CC(=O)Nc5cc(C(C)(C)C)nn5C)cc4)cnc3c2)cn1 | > 100 | > 100 | > 100 | > 100 | > 100 | 12.4 | 0.585 | > 100 | > 100 | > 100 | 0.282 | 0.157 | 0.409 | 0.063 | 0.347 | 0.112 | 0.227 | 0.256 | 0.324 | 0.179 |
| O=C(Nc1nc2ncn(CCOC(=O)c3ccccc3)c2c(=O)[nH]1)c1ccccc1 | > 100 | > 100 | > 100 | > 100 | > 100 | 65.2 | > 100 | > 100 | > 100 | > 100 | – | – | – | – | – | – | – | – | – | – |

Reference: PubChem BioAssay (NCI)
